One compound from EPA's ToxValDB 9.5 (doi:10.2903/j.efsa.2013.3052) can be followed below.

Molecules are shown by their SMILES. Bounds are passed on as bounds.

The subject of one data set is Hypoaspis aculeifer. The following applies: chronic/long-term; duration: 14 days; reproduction.
The next data set concerns Bibionidae. The following applies: chronic/long-term; duration: 28 days; other.
For a further data set, the system named is Pimephales promelas. The conditions noted are these: chronic/long-term; duration: 33 days; behavior.
In the next data set the test system is Daphnia magna. The following applies: chronic/long-term; duration: 21 days; reproduction.
The subject of a further data set is Anas platyrhynchos. The conditions noted are these: short-term; oral; feed; mortality.
Another data set deals with Neomysis kadiakensis. The conditions noted are these: acute; duration: 96 hours; mortality.
Another data set has as its system Folsomia candida. The conditions noted are these: chronic/long-term; duration: 28 days; reproduction.
For another data set, the system named is Apis mellifera. The following applies: acute, duration: 48 hours, mortality.
A further data set deals with Mus musculus. The following applies: subchronic; duration: 90 days; oral; diet; organ weight.
In another data set the test system is Cyprinodon variegatus. The conditions noted are these: acute; duration: 96 hours; mortality.

For `O=C(NCCc1ncc(C(F)(F)F)cc1Cl)c1ccccc1C(F)(F)F` [Fluopyram], the NOEC in the data set on Hypoaspis aculeifer is greater than 415 mg/kg; in the data set with Bibionidae, 1.39 mg/L; with Pimephales promelas it was 0.135 mg/L; in the data set on Daphnia magna it was 1.25 mg/L; in the data set on Tagia sp. (chronic/long-term, duration: 56 days, reproduction), 11.4 mg/kg; with Folsomia candida, 104 mg/kg. Also, the NOAEL (in general, the highest dose or exposure tested at which no adverse effect was seen) with Rattus norvegicus (acute, F, neurology) amounted to 50 mg/kg-day; with Rattus norvegicus (chronic) it was 14.5 mg/kg-day; in the data set on Rattus norvegicus (chronic, duration: 2 years, oral, diet, body weight) it was 1.2 mg/kg-day; in the data set on Colinus virginianus (reproduction developmental) it was 7.2 mg/kg-day; in the data set with Mus musculus, 5.4 mg/kg-day. Besides, the LD50 was greater than 2000 mg/kg-day with Rattus norvegicus (acute, oral, mortality); greater than 2000 mg/kg-day in the data set with Colinus virginianus (acute, oral, mortality); greater than 100 µg/piece in the data set on Apis mellifera (dermal); greater than 102 µg/piece in the data set with Apis mellifera (oral, unspecified). The LC50 in the data set on Tagia sp. (acute, duration: 14 days, mortality) was greater than 1000 mg/kg; in the data set on Anas platyrhynchos, greater than 1640 mg/kg-day; in the data set on Neomysis kadiakensis it was greater than 0.5 mg/L; with Cyprinodon variegatus, greater than 0.98 mg/L.
